Here are results for two molecules from patent publication US20170224679A1, “Use of CXCR2 Antagonists For The Prevention and/or Treatment of Chemotherapy Induced Peripheral Neuropathy (CIPN)” (GlaxoSmithKline Intellectual Property Development Limited, priority 2014, published 2017).

One assay deals with HCT116 cell line. Briefly: Colorectal cancer cell line proliferation assay, HCT116. Format: cell-based. The settings on record: HCT116, compound alone 8.5 μM, non-significant. The procedure: Cell proliferation assay: Cells were seeded in 96-well plates (Costar) at different cell densities: HCT116, 500 cells per well; Caco-2, 1000 cells per well. Total volume of the medium was 90 μl per well. Cells were incubated for 24 hours at 37° C. and 5% CO2 incubator. […] The final concentration of the Compound of Formula (A) was 8.5 μM. […] The cell proliferation rate was measured by adding 100 μl of CellTiter-Glo™ (Promega) according to the manufacturer's instructions. After 10 minutes of incubation, the cell lysates were transferred into OptiPlate-384 well, the luminescence was recorded by BioTek Synergy™ 4 Hybrid Microplate Reader with Gen5 software. All data points were generated in five replicates. Three independent experiments were performed. […] All data were presented as the mean±standard error of the mean determined from three independent experiments.

Assay [1] concerns the target T1, CXCR2 receptor (Homo sapiens, UniProt P25025).
T1 sequence (P25025 1-360): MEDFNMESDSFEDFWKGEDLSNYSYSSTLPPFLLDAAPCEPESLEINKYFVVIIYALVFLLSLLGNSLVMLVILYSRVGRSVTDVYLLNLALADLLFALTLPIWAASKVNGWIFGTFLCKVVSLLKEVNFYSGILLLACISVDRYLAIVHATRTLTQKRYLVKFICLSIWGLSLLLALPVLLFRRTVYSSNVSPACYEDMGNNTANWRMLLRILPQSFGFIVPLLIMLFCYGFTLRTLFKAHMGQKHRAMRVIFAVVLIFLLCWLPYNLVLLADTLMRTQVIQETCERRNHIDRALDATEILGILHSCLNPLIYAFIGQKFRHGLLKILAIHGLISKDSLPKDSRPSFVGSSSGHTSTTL
Briefly: Calcium mobilization assay (FLIPR, IL-8 induced). Format: cell-based. On the set-up: expressed in transfected cells; host or cells: CHO-K1 cells. On the technique in general: A change in cytosolic calcium serves as a functional read-out for many receptors and channels.
Method: CHO-K1 cells, stably expressing CXCR2 and Gαl6, were grown to 80% confluency in DMEM/F12 (HAM's) 1:1, w/10% FCS (heat inactivated), w/2 mM L-glutamine, w/0.4 mg/ml G418 while maintained at 37° C. in a 5% CO2 incubator. Twenty four hours prior to conducting the assay, the cells were harvested and plated (40,000 cells per well) in a 96 well, black wall, clear bottom plate (Packard View) and returned to the CO2 incubator. On the day of the assay, compounds were serially diluted in 100% DMSO to 300× the desired assay concentration. Growth media was aspirated from the cells and replaced with 100 μL of load media (EMEM with Earl's salts w/LGlutamine, 0.1% BSA, (Bovunlinar Cohen Fraction V from Seriologicals Corp.), 4 uM Fluo-4-acetoxymethyl ester fluorescent indicator dye (Fluo-4 AM, from Molecular Probes) and 2.5 mM probenecid) and incubated for 1 hour at 37° C. in a CO2 incubator. Load media was aspirated and replaced with 100 μL of EMEM with Earl's salts w/L-Glutamine, 0.1% gelatin and 2.5 mM probenecid and incubated for an additional 10 min. Serially diluted compound (3 μL) in DMSO at 300× was transferred to a 96 well plate containing 297 micro liters of KRH (120 mM NaCl, 4.6 mM KCl, 1.03 mM KH2PO4, 25 mM NaHCO3, 1.0 mM CaCl2, 1.1 mM MgCl2, 11 mM glucose, 20 mM HEPES (pH 7.4)) w/2.5 mM probenecid and 0.1% gelatin (compound now at 3×). […]

The subject of the next assay is Sprague-Dawley rats. The experiment in a line: CXCR2 antagonist effect on repeat dosing oxaliplatin induced sensory injury rat. To be noted: oxaliplatin-treated rats, 20 mg/kg p.o. b.i.d. 4 weeks.
For assay [2], the target named is T1, CXCR2 receptor. Briefly: CXCR2 Tango assay. On the set-up: fused on or other part: TEV protease cleavage site and Gal4-VP16 transcription factor fused to the receptor (Invitrogen Tango construct); no part of the key. To be noted: Tango reporter gene, 80 nM hCXCL1; read-out: pIC50 against the CXCR2 receptor (converted). Format: cell-based. The text has this: The assay measures ligand-induced activation of the receptor CXCR2 in a stable cell line containing the recombinant human CXCR2 linked to a TEV protease site and a Gal4-VP16 transcription factor (Invitrogen). Ligand binding to the receptor results in the recruitment of arrestin proteins (tagged with protease) to the receptor and triggers the release of a tethered transcription factor. The transcription factor enters the nucleus and activates the transcription of the reporter gene. The ability of a compound to inhibit CXCR2 activation is indirectly assessed by measuring the reporter gene activity.
A vial of cryopreserved cells was removed from liquid nitrogen and rapidly thawed in a water bath at 37° C. with gentle agitation. The cell contents were collected and resuspended in Assay Medium at a density of ˜200,000 cells/ml. All test compounds were dissolved in DMSO at a concentration of 10 mM and then were serially diluted to generate a 10-point dose response curve into 384-well assay plate (Greiner 781090) using an Echo (Labcyte) concentration-response program (50 nl/well). The cell-free, un-stimulated and positive controls were loaded with 50 nl/well pure DMSO to ensure that the DMSO concentration was constant across the plate for all assays. Using Multi-drop Combi (Thermo) with standard cassette, 50 μl of Assay Medium was added to cell-free control wells in compound-containing assay plate; 50 μl of the cell suspension without hCXCL1 (a CXCR2 ligand) was added to un-stimulated control wells (10,000 cells per well); and 50 μl of the cell suspension with 80 nM hCXCL1 was added to the rest of wells of the assay plate (10,000 cells per well). The cells were incubated overnight at 37° C./5% CO2·10 μl of 6× substrate mixture (LiveBLAzer™-FRET B/G substrate (CCF4-AM) Cat #K1096 from Invitrogen, Inc.) was added to each well using Multi-drop Combi (Thermo) with small-tube cassette and the plate was incubated at room temperature for 2 h in the dark. The plate was then read on EnVision using one excitation channel (409 nm) and two emission channels (460 nm and 530 nm).
The blue/green emission ratio (460 nm/530 nm) was calculated for each well by dividing the background-subtracted Blue emission values by the background-subtracted Green emission values. The dose response curve was based on sigmoidal dose-response model. All ratio data was normalized based upon the maximum emission ratio of positive control (hCXCL1) and minimum emission ratio of negative control (DMSO) on each plate.
A general note: A reporter such as luciferase makes a cellular process visible.

Assay [3] has as its target T1, CXCR2 receptor. The experiment in a line: Human whole blood assay version i) (CD11b, CXCL1 stimulated). Format: cell-based. On the set-up: Assay d) measures the cellular functional activity to the native expressed human CXCR2 in whole blood; endogenous in cells; host or cells: human whole blood (neutrophils). To be noted: 10 nM CXCL1, neutrophil CD11b, read-out: pIC50 against the CXCR2 receptor (converted).
Method: Human blood was obtained from healthy consenting adults by trained medical professionals by venipuncture in a 10 ml syringe containing 225 μI of 0.25 M EDTA and filling with 7 ml of blood (maintained at 37° C. throughout the CXCL1 stimulation).
The test compounds were dissolved in 100% DMSO to a concentration of 10 mM and diluted to 12× the assay concentration in 1.2% DMSO (final concentration DMSO of 0.1%).
Assay: 100 μI of whole blood was added to assay tubes or 96 well U-bottom clear plates containing 10 μI of 1.2% DMSO (assay concentration of 0.1%) or 10 μI of compound dissolved in 1.2% DMSO (assay concentration range of 0.1 μM to 10 μM), then incubated for 10 minutes at 37° C., followed by addition of 10 μI of 0.1% BSA in DPBS (negative controls) or 10 μI of 120 nM CXCL1 (GROα, Prepro Tech, Inc) dissolved in 0.1% BSA in DPBS (assay concentration of 10 nM which is the EC80 for CXCL1) and incubated at 37° C. for an additional 10 min with gentle agitation before being placed on ice and assay terminated by adding 250 μI of CellFix or 250 μI of 3.7% v/v paraformaldehyde (BD Biosciences). […] Before being analyzed using an LSR flow cytometer (Becton-Dickinson) or FACS Canto II, cells were stained for 10 minutes at 4° C. with 10 μI of LDS-751 (Molecular Probes), a nucleic acid stain, allowing a cytometer threshold setting to exclude red blood cells. […]

Method for Sprague-Dawley rats: Male Sprague-Dawley rats (109-167 g, ˜5weeks old) were housed in cages in groups of three in a controlled environment of constant temperature and moisture (temperature: 25±3° C., light: dark cycle of 12:12 hours) with food (25 g/rat/day of LabDiet 5053) and water available ad libitum.
MC (Sigma Cat #423238) was made up in water at 1% (w/v) (1 g per 100 mL water) and left on a stirrer until completely dissolved. The formulation was prepared every 6-8 days in 400-700 mL each time and stored at 4° C. protected from light. The dosing volume used was 10 mL/kg to give a 20 mg/kg p.o. dose. Vehicle treated animals were dosed b.i.d. with 1% MC w/v at 10 mL/kg p.o.
A fresh solution was prepared before every injection. Control vehicle animals were treated with 5% w/v Gluclose at 5ml/kg. Glucose (Sigma Aldrich Cat #G7021) was made up in milli-Q water at 5% (w/v) (5 g per 100 mL water) and left on a stirrer until completely dissolved.
Body weight tracking: The bodyweights of rats were measured twice a week for 4 weeks on Days 1, 3, 9, 11, 16, 18, 23, and 25. […]
Rats were anesthetized with chloral hydrate (350 mg/kg, 3.5 mL/kg, i.p.). […] The right sciatic nerve was carefully identified and conduction velocity was measured by recording action potentials from an electrode placed between the second and third digits as described by Jamieson et al., Br. J. Cancer, 88(12):1942-7 (2003), and electrically stimulating the nerve (5V, 0.5 s, single-wave pulses) via a platinum wire electrode at the sciatic notch and ankle. The length between the sciatic notch and ankle was measured.
The nerve conduction velocity was calculated as the length between sciatic notch and ankle divided by the difference between the time latencies at the stimulation sites [latency (sciatic notch)−latency (ankle)].
A 1 cm segment of the left sciatic nerve (distal end) was located and carefully dissected out. […] The ratio of inner area over entire area of nerve fibers of sciatic nerves was then calculated as an indicator of thickness of myelin sheath of nerves.

In the case of `O=C(Nc1ccc(Cl)c(S(=O)(=O)N2CCNCC2)c1O)Nc1cccc(F)c1Cl` [Compound of Formula (A), 1-(4-chloro-2-hydroxy-3-(piperazin-1-ylsulfonyl)phenyl)-3-(2-chloro-3-fluorophenyl)urea], the “decrease of basal proliferation” value in the assay with HCT116 cell line turned out to be 8.9±0.7%. Also, on CXCR2 receptor [1], the Kb was 3.98 nM. In the assay with Sprague-Dawley rats (Day 29-31, mean±SEM), the “sciatic nerve conduction velocity between sciatic notch and ankle” value came out at 40.83±1.45 m/s. The “ratio of inner area over entire area of the nerve fibers (myelin sheath thickness)” value in the assay with Sprague-Dawley rats (left sciatic nerve, mean±SEM) stood at 0.17±0.01. The IC50 was 0.631 nM at CXCR2 receptor [2] and 2000 nM at CXCR2 receptor [3].
Take `CN1CCC(C)(S(=O)(=O)c2c(Cl)ccc(NC(=O)Nc3cccc(F)c3Cl)c2O)CC1` [Compound of Formula (D), 1-(4-chloro-3-((1,4-dimethylpiperidin-4-yl)sulfonyl)-2-hydroxyphenyl)-3-(2-chloro-3-fluorophenyl)urea]: the IC50 was 1.26 nM on CXCR2 receptor [2] and 3980 nM at CXCR2 receptor [3].
